Test results published in patent publication US10875860B2, “Azaindenoisoquinoline compounds and uses thereof” (Purdue Research Foundation, priority 2016, dated 2020).
Where two headings read alike, the source gives them in different places.

Experiments:
[1] = system: OVCAR-3; experiment: NCI-60 cytotoxicity, OVCAR-3; conditions: Homo sapiens, OVCAR-3, read-out: Cytotoxicity (GI50) Ovarian Ovcar-3
[2] = biological target: T1, recombinant human TDP2 (Homo sapiens, UniProt O95551); experiment: Recombinant Tdp2 assay; format: biochemical
T1 sequence (O95551 1-362): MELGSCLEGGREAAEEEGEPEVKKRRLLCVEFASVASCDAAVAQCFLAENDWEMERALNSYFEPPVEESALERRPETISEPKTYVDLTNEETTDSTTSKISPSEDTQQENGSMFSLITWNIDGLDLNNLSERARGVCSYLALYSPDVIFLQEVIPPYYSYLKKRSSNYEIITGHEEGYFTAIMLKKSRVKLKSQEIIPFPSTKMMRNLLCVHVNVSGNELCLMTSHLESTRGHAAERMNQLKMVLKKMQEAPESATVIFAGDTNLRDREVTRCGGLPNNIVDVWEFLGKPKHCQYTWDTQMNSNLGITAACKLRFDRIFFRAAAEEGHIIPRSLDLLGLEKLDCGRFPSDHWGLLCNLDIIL

[3] = system: DU-145; experiment: NCI-60 cytotoxicity, DU-145; format: cell-based; conditions: Homo sapiens, single determinations, Table 2, read-out: Cytotoxicity (GI50) Prostate DU-145
[4] = biological target: Tdp1 (Homo sapiens, UniProt Q9NUW8); experiment: Recombinant Tdp1 assay; format: biochemical
Sequence of Tdp1 (Q9NUW8 whole entry): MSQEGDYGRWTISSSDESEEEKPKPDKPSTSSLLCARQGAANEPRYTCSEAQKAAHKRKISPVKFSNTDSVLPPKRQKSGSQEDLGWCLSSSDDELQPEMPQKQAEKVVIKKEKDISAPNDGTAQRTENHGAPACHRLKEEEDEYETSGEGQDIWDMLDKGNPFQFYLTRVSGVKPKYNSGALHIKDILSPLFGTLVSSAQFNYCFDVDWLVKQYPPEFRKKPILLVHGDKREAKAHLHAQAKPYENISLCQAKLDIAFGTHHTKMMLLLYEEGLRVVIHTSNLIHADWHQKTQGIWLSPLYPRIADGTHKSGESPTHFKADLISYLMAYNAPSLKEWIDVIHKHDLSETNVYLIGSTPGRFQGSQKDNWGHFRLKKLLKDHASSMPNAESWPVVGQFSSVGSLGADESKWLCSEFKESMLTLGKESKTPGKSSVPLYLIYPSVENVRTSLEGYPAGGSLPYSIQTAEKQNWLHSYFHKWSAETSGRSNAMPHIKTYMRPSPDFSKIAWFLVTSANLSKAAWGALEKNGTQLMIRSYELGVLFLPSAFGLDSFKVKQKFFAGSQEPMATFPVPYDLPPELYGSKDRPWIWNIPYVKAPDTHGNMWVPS

[5] = system: SN12C; experiment: NCI-60 cytotoxicity, SN12C; conditions: Homo sapiens, read-out: Cytotoxicity (GI50) Renal SN12C
[6] = system: MCF-7; experiment: NCI-60 cytotoxicity, MCF-7; conditions: Homo sapiens, MCF7, read-out: Cytotoxicity (GI50) Breast MCF-7
[7] = system: HOP-62; experiment: NCI-60 cytotoxicity, HOP-62; conditions: Homo sapiens, HOP-62, read-out: Cytotoxicity (GI50) Lung HOP-62
[8] = system: HCT-116; experiment: NCI-60 cytotoxicity, HCT-116; format: cell-based; conditions: Homo sapiens, single determinations, Table 2, read-out: Cytotoxicity (GI50) Colon HCT-116
[9] = system: NCI-60 panel of human cancer cell lines; experiment: NCI-60 screen, mean graph midpoint over all cell lines; conditions: Homo sapiens
[10] = system: SF-539; experiment: NCI-60 cytotoxicity, SF-539; conditions: Homo sapiens, SF-539, read-out: Cytotoxicity (GI50) CNS SF-539
[11] = system: UACC-62; experiment: NCI-60 cytotoxicity, UACC-62; conditions: Homo sapiens, UACC-62, read-out: Cytotoxicity (GI50) Melanoma UACC-62
[12] = biological target: T2, Top1 (Homo sapiens, UniProt P11387); experiment: Top1-mediated DNA cleavage assay; format: biochemical; parameters: Top1 inhibitory activity level / Top1 inhibitory activity score: key to the marks not given beside the values; conditions: for Enzyme Inhibitory Activity Top1: DNA cleavage relative to 1 μM MJ-III-65 (19) and 1 μM camptothecin (18); for Top1 inhibitory activity level: series 1
T2 sequence (P11387 1-765): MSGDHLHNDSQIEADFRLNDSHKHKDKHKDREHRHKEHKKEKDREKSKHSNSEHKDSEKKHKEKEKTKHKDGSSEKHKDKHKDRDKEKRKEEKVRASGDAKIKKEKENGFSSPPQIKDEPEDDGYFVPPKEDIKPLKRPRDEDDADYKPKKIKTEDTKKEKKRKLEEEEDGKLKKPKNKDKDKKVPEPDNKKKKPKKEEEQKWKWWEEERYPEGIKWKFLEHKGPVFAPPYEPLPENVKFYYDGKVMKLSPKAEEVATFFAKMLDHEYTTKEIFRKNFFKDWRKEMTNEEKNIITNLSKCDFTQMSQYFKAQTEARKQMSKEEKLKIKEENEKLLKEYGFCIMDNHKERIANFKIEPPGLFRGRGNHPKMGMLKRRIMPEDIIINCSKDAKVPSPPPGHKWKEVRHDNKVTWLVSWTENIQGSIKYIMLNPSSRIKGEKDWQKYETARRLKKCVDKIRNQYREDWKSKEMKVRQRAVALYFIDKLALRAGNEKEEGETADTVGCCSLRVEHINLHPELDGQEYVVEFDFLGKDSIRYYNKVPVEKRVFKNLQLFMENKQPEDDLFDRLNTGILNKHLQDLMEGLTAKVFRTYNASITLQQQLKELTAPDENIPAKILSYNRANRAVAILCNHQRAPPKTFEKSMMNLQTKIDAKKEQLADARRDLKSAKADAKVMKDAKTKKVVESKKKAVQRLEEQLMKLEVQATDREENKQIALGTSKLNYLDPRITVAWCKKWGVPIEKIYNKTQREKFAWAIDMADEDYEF

[13] = determined in duplicate, Table 2, read-out: Enzyme Inhibitory Activity Tdp2 (IC50)
[14] = determined in duplicate, Table 2, read-out: Enzyme Inhibitory Activity Tdp1 (IC50)
[15] = read-out: Cytotoxicity (GI50) MGM
[16] = semiquantitative scale, in duplicate, Table 1, read-out: Enzyme Inhibitory Activity Tdp2
[17] = semiquantitative scale, in duplicate, Table 1, read-out: Enzyme Inhibitory Activity Tdp1
[18] = read-out: Enzyme Inhibitory Activity Tdp2 (IC50)

Row | Structure (SMILES) | IC50 [2, 13] [nM] | IC50 [4, 14] [nM] | melting point [°C] | Enzyme Inhibitory Activity Top1 ([12]; Table 2) | IC50 [2, 16] [nM] | IC50 [4, 17] [nM] | Enzyme Inhibitory Activity Top1 ([12]; Table 1) | Top1 inhibitory activity level [12] | GI50 [1] [nM] | GI50 [3] [nM] | GI50 [5] [nM] | GI50 [6] [nM] | GI50 [7] [nM] | GI50 [8] [nM] | GI50 [9, 15] [nM] | GI50 [10] [nM] | GI50 [11] [nM] | IC50 [2, 18] [nM] | GI50 ([9]; read-out: MGM (GI50 mean graph midpoint)) [nM]
1 | CCNCCCn1c2c(c3ccc([N+](=O)[O-])cc3c1=O)C(=O)c1cc(OC)cnc1-2 [Compound 15, 7-Aza-6-[3-(ethylamino)propyl]-5,6-dihydro-9-methoxy-3-nitro-5,11-dioxo-11H-indeno[1,2-c]isoquinoline] |  |  | 266 to 268 |  | 37000 to 111000 | 1000 to 12000 | ++++ | ++++ | 62 |  | 53 | 19 | 107 |  | 79 | 70 | 27 |  | 
2 | COc1cnc2c(c1)C(=O)c1c-2n(CCCNC2=NCCS2)c(=O)c2cc(F)ccc12 [Compound 17c, 6-(3-((4,5-Dihydrothiazol-2-yl)amino)propyl)-3-fluoro-9-methoxy-5H-pyrido[3′,2′:4,5]-cyclopenta-[1,2-c]isoquinoline-5,11(6H)-dione] |  | > 111000 | 226 to 250 | ++ |  |  |  |  | 567 | 144 | 238 | 33 | 59 | 82 | 269 | 305 | 344 | 61600 ± 14000 | 
3 | COc1cnc2c(c1)C(=O)c1c-2n(CCCNC2=NCCS2)c(=O)c2cc(Cl)ccc12 [Compound 16c, 3-Chloro-6-(3-((4,5-dihydrothiazol-2-yl)amino)propyl)-9-methoxy-5H-pyrido[3′,2′:4,5]cyclopenta[1,2-c]isoquinoline-5,11(6H)-dione] |  | 11900 ± 3900 | 295 to 298 | ++ |  |  |  |  | 1300 | 92 |  | 36 | 42 | 350 | 390 | 470 | 95 | 32900 ± 5700 | 
4 | CNCCCn1c2c(c3ccc([N+](=O)[O-])cc3c1=O)C(=O)c1cc(OC)cnc1-2 [Compound 11] |  |  | 259 to 262 |  | 37000 to 111000 | 1000 to 12000 | +++ | +++ | 174 |  | 46 | 1060 | 30 |  | 741 | 51 | 20 |  | 714
5 | COc1cnc2c(c1)C(=O)c1c-2n(CCCN2CCNCC2)c(=O)c2cc([N+](=O)[O-])ccc12 [Compound 10, 7-Aza-5,6-dihydro-9-methoxy-3-nitro-5,11-dioxo-6-[3-(piperazine-1-yl)propyl]-11H-indeno[1,2-c]isoquinoline] |  |  | 134 to 135 |  | 37000 to 111000 | 12000 to 37000 | ++ | ++ | 1190 |  | 230 | 36 | 65 |  | 316 | 355 | 175 |  | 
6 | COc1cnc2c(c1)C(=O)c1c-2n(CCCBr)c(=O)c2cc([N+](=O)[O-])ccc12 [Compound 7, 7-Aza-6-(3-bromopropyl)-5,6-dihydro-9-methoxy-3-nitro-5,11-dioxo-11H-indeno[1,2-c]isoquinoline] |  |  | 170 to 172 |  | 37000 to 111000 | 12000 to 37000 | ++ | ++ | 248 |  | 269 | 46 | 58 |  | 112 | 279 | 82 |  | 

Further lines, with some results ahead:

Row | IC50 [2, 13] [nM] | IC50 [4, 14] [nM] | melting point [°C] | Enzyme Inhibitory Activity Top1 ([12]; Table 2) | IC50 [2, 16] [nM] | IC50 [4, 17] [nM] | Enzyme Inhibitory Activity Top1 ([12]; Table 1) | Top1 inhibitory activity level [12] | Structure (SMILES) | GI50 [1] [nM] | GI50 [3] [nM] | GI50 [5] [nM] | GI50 [6] [nM] | GI50 [7] [nM] | GI50 [8] [nM] | GI50 [9, 15] [nM] | GI50 [10] [nM] | GI50 [11] [nM] | IC50 [2, 18] [nM] | GI50 ([9]; read-out: MGM (GI50 mean graph midpoint)) [nM]
7 | > 111000 | 16000 ± 3200 | 274 to 275 |  |  |  |  |  | CNCCCn1c2c(c3ccc(Cl)cc3c1=O)C(=O)c1cc(OC)cnc1-2 [Compound 16g, 3-Chloro-9-methoxy-6-(3-(methylamino)propyl)-5H-pyrido[3′,2′:4,5]cyclopenta[1,2-c]isoquinoline-5,11(6H)-dione] | 1410 | 331 | 1180 | 46 | 220 | 550 | 600 | 730 | 574 |  | 
8 | 108000 ± 3000 | > 111000 | 259 to 265 | + |  |  |  |  | CNCCCn1c2c(c3ccc(F)cc3c1=O)C(=O)c1cc(OC)cnc1-2 [Compound 17g, 3-Fluoro-9-methoxy-6-(3-(methylamino)propyl)-5H-pyrido[3′,2′:4,5]cyclopenta[1,2-c]isoquinoline-5,11(6H)-dione] | 263 | 202 | 211 | 34 | 142 | 143 | 245 | 368 | 608 |  | 
9 | > 111000 | > 111000 | 157 to 162 | +++ |  |  |  |  | COc1cnc2c(c1)C(=O)c1c-2n(CCCN2CCCC2)c(=O)c2cc(F)ccc12 [Compound 17i, 3-Fluoro-9-methoxy-6-(3-(pyrrolidin-1-yl)propyl)-5H-pyrido[3′,2′:4,5]cyclopenta[1,2-c]isoquinoline-5,11(6H)-dione] | 307 | 211 | 241 | 48 | 212 | 153 | 288 | 360 | 471 |  | 
10 | > 111000 | > 111000 | 285 to 292 | ++ |  |  |  |  | COc1cnc2c(c1)C(=O)c1c-2n(CCCNC(C)C)c(=O)c2cc(F)ccc12 [Compound 17f, 3-Fluoro-6-(3-(isopropylamino)propyl)-9-methoxy-5H-pyrido[3′,2′:4,5]cyclopenta[1,2-c]isoquinoline-5,11(6H)-dione] | 190 | 210 | 164 | 31 | 107 | 93 | 165 | 248 | 271 |  | 
